Experimental data reported in BindingDB's records for patent US12391670 (Leadxpro, 2025).

Assays:
Assay in all cases: Radioligand Binding Assay
Adenosine receptor A2b = target: T1, Adenosine receptor A2b (Homo sapiens, UniProt P29275)
T1 sequence (P29275 whole entry): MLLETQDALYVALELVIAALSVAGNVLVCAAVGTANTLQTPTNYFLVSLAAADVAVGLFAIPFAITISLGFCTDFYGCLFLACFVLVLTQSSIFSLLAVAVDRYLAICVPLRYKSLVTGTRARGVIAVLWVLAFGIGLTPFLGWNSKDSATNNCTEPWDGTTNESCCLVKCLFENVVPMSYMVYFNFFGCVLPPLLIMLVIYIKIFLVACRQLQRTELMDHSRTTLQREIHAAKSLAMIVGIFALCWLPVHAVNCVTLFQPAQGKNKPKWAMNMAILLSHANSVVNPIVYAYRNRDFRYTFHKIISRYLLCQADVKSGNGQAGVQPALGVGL
Procedure: (§1) For all four adenosine receptors (A1, A2A, A2B and A3) filtration binding assay was performed. Radioligand binding competition assay was done in duplicates in the wells of a 96-well plate (Master Block, Greiner, 786201) containing binding buffer, receptor membrane extracts, a fixed concentration of tracer and test compound at increasing concentrations. In order to eliminate effect of buffer components, binding buffer was the same for all four receptors and contained: 50 mM Tris-HCl pH 7.4, 5 mM MgCl2, 1 mM EDTA, 150 mM NaCl, 0.1% Na-azide, and 5 U/ml adenosine-deaminase. Nonspecific binding was determined by co-incubation with 200-fold excess of cold competitor. In all radioligand binding experiments, the samples were incubated in a final volume of 0.1 ml for 60 minutes at 25° C. and then filtered over Unifilter plates (Perkin Elmer) pre-treated for 2 hours to limit tracer non-specific binding. Filters were washed five times with 0.5 ml of ice-cold washing buffer (50 mM Tris-HCl pH 7.4, 5 mM MgCl2, 1 mM EDTA) and 50 μl of Microscint 20 (Perkin Elmer) were added to each filter. The plates are incubated 15 min at room temperature on an orbital shaker and then counted with a TopCount™ for 1 min/well.

Adenosine receptor A3 = target: T2, Adenosine receptor A3 (Homo sapiens, UniProt P0DMS8)
T2 sequence (P0DMS8 whole entry): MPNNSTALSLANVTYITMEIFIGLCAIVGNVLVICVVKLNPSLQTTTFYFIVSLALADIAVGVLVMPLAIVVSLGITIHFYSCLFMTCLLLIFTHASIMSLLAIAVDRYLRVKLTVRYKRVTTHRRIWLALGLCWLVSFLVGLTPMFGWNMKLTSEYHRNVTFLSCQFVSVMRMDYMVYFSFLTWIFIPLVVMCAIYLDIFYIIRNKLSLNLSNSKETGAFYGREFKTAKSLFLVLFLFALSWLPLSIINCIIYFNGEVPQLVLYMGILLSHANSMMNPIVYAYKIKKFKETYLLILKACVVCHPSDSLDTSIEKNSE
Procedure: as §1

Adenosine receptor A2a = Adenosine receptor A2a (Homo sapiens, UniProt P29274)
Procedure: as §1

Sequence of Adenosine receptor A2a (P29274 whole entry): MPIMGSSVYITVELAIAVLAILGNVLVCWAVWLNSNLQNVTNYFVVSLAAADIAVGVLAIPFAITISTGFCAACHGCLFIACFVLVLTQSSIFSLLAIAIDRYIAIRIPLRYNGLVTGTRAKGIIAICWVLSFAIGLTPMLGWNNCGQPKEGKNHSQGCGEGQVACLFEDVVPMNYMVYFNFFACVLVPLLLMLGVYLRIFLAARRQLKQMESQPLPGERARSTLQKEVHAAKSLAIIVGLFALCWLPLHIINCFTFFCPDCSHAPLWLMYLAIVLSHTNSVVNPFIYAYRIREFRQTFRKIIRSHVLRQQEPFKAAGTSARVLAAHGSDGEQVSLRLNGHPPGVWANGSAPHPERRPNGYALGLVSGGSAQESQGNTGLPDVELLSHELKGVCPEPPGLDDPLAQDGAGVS

SMILES: Fc1ccccc1-c1nc(Nc2cccnc2)nnc1-c1ccnc(C(F)(F)F)c1 [US12391670, Example 8]
- IC50 (Adenosine receptor A2b): 250 nM
- Ki (Adenosine receptor A2b): 224 nM
- IC50 (Adenosine receptor A3): 1350 nM
- Ki (Adenosine receptor A3): 1020 nM
- IC50 (Adenosine receptor A2a): 24100 nM
- Ki (Adenosine receptor A2a): 24000 nM

SMILES: Cc1nsc(Nc2nnc(-c3ccnc(C(F)(F)F)c3)c(-c3ccccc3F)n2)n1 [US12391670, Example 11]
- IC50 (Adenosine receptor A2b): 1010 nM
- Ki (Adenosine receptor A2b): 891 nM
- Ki (Adenosine receptor A2a): > 20000 nM
